Laboratory results published in ChEMBL document CHEMBL2073846, “Pharmacokinetic study of the hepatobiliary transport of indomethacin” (Pharm Res, 2000).

Legend:
[1] = target: T1, ATP-binding cassette sub-family C member 2 (Rattus norvegicus, UniProt Q63120); test: TP_TRANSPORTER: biliary excretion in SD rat; type: functional, organism-based, Sprague-Dawley, Bile; conditions: in vivo
[2] = target: T1, ATP-binding cassette sub-family C member 2; test: TP_TRANSPORTER: biliary excretion in EHBR rat; type: functional, organism-based, Bile; conditions: in vivo
[3] = target: T2, Solute carrier organic anion transporter family member 1A1 (Rattus norvegicus, UniProt P46720); test: TP_TRANSPORTER: uptake in Oatp1-expressing COS-7 cells; type: functional, cell-based; conditions: monkey
T2 sequence (P46720 whole entry): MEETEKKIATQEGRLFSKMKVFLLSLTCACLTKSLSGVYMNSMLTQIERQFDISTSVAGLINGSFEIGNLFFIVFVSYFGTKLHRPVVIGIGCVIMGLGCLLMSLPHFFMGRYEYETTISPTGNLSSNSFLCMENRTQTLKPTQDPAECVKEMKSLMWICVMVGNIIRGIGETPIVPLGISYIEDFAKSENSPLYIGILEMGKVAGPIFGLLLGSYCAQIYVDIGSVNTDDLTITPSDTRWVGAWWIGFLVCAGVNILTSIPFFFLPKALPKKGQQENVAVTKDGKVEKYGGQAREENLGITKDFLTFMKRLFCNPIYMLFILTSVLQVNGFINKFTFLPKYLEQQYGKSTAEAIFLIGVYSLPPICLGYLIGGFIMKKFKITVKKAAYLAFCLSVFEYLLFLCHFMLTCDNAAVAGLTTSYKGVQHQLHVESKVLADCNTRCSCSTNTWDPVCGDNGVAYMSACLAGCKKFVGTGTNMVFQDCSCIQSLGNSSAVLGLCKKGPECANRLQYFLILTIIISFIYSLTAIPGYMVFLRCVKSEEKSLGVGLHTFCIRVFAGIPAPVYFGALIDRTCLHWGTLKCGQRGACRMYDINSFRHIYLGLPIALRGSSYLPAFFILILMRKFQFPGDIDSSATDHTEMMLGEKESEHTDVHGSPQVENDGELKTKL

[4] = target: T3, Hepatic sodium/bile acid cotransporter (Rattus norvegicus, UniProt P26435); test: TP_TRANSPORTER: uptake in Ntcp-expressing COS-7 cells; type: functional, cell-based; conditions: monkey
T3 sequence (P26435 whole entry): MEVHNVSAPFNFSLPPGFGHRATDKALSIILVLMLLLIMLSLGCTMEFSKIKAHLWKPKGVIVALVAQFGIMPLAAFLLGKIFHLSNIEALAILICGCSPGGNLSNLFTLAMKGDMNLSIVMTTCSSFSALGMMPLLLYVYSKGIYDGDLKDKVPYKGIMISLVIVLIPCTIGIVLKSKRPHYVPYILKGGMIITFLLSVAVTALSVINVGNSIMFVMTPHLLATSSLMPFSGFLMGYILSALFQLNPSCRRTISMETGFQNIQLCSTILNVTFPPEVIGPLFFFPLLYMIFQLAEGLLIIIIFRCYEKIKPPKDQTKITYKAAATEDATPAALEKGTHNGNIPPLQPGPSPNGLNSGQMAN

T1 sequence (Q63120 whole entry): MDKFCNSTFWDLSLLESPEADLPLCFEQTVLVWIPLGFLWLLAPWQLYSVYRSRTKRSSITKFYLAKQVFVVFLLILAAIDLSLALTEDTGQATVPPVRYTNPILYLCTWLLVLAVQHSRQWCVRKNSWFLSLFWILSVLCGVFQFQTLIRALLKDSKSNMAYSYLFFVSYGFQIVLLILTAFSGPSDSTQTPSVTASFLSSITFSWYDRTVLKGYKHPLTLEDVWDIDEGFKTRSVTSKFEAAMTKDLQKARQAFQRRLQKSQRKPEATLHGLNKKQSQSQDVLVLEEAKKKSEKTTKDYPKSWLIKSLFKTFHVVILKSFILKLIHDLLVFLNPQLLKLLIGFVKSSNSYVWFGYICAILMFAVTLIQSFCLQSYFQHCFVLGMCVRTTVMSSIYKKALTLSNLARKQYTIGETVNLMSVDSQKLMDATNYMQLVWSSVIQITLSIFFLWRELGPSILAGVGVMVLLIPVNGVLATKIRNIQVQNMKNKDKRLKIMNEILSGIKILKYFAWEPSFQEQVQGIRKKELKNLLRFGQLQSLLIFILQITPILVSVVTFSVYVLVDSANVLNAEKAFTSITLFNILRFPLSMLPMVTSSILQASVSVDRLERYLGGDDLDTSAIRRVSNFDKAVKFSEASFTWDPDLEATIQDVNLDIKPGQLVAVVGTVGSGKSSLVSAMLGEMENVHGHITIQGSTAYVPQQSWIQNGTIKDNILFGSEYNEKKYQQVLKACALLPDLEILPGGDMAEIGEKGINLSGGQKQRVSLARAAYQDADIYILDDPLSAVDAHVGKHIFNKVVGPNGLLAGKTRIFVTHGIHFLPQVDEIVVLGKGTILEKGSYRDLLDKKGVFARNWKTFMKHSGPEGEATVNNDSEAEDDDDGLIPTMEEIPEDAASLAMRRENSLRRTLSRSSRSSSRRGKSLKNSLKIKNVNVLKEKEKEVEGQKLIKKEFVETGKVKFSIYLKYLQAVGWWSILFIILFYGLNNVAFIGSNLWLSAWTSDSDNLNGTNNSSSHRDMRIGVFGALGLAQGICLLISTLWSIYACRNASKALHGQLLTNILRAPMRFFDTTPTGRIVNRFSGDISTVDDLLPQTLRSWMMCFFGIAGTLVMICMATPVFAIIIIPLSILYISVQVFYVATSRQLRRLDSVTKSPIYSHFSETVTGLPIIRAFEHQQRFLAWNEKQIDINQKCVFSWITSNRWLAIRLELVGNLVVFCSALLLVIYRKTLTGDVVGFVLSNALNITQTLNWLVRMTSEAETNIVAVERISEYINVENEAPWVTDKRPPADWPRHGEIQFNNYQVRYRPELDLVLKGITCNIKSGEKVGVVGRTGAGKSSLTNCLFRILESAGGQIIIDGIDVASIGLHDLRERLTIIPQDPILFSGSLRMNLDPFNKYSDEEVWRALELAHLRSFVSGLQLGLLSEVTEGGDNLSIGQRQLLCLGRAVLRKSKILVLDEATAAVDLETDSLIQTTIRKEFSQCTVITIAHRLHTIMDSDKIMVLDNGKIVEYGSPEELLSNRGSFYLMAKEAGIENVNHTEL

Activity [1] | Activity [2] | Activity [3] | Activity [4] | SMILES
substrate [+] | substrate [+] |  |  | COc1ccc2c(c1)c(CC(=O)O[C@@H]1O[C@H](C(=O)O)[C@@H](O)[C@H](O)[C@H]1O)c(C)n2C(=O)c1ccc(Cl)cc1 [INDOMETHACIN GLUCURONIDE]
is not a substrate [-] | is not a substrate [-] | is not a substrate [-] | is not a substrate [-] | COc1ccc2c(c1)c(CC(=O)O)c(C)n2C(=O)c1ccc(Cl)cc1 [INDOMETHACIN]
